From patent US5571793A, “Endoparasiticidal compositions based on open-chain tetradepsipeptides” (Bayer Aktiengesellschaft, priority 1993, dated 1996) come the findings set out here.

The assay has as its system Haemonchus contortus. The assay is described as follows: In vivo nematode test Haemonchus contortus/sheep. Conditions: sheep infected experimentally with Haemonchus contortus; pure active compound orally and/or intravenously; dose at which nematode egg excretion with the faeces stops completely. On the procedure:
Sheep which had been infected experimentally with Haemonchus contortus were treated after the prepatency period of the parasites had elapsed. The active compounds were administered orally and/or intravenously in the form of the pure active compound.
The degree of effectiveness is determined by quantitatively determining the nematode eggs excreted with the faeces before and after the treatment.
If egg excretion stops completely after the treatment, this means that the nematodes have been aborted or damaged in such a manner that they no longer produce eggs (dosis effectiva).
Active compounds which have been tested and effective dosage rates (dosis effectiva) can be seen from the Table which follows: […]
As to `CCN[C@@H](CC(C)C)C(=O)O[C@H](C)C(=O)N(CC)[C@@H](CC(C)C)C(=O)O[C@H](Cc1ccccc1)C(=O)OC(C)(C)C` [Example 1, tert.-Butyl-N-ethyl-L-leucyl-D-lactyl-N-ethyl-L-leucyl-D-3-phenyllactate], the “Dosis effectiva” value is 10 mg/kg.
With `CCCN(Cc1ccccc1)[C@@H](CC(C)C)C(=O)O[C@H](C)C(=O)N(CCC)[C@@H](CC(C)C)C(=O)O[C@H](Cc1ccccc1)C(=O)O` [Example 2, N-Benzyl-N-propyl-L-leucyl-D-lactyl-N-propyl-L-leucyl-D-phenyllactic acid] the figure was 10 mg/kg; with `CN[C@@H](Cc1ccccc1)C(=O)O[C@H](C)C(=O)N(C)[C@H](Cc1ccccc1)C(=O)O[C@H](C)C(=O)OC(C)(C)C` [Example 3, tert.-Butyl-N-methyl-L-phenylalanyl-D-lactyl-N-methyl-D-phenylalanyl-D-lactate], 10 mg/kg.
